Results taken from patent US20240156920A1, “COMPOSITIONS COMPRISING HYALURONIDASE AND/OR COLLAGENASE AND/OR 4-METHYLUMBELLIFERONE (4-MU) AND METHODS OF TREATMENT USING SAME” (STANDARD OF CARE CORPORATION, priority 2019, published 2024).

Tests used:
[1] = tested on: patients with lower eyelid puffiness; assay: Treatment of lower eyelid puffiness with hyaluronidase and collagenase, visual assessment (Example 7); assay type: in vivo, human; settings: one patient per composition; 100 U to each of five sites in the lower eyelid fat pads; assessed 2 weeks to 1 year after administration
Description: Patient A (a person), Patent B (a person), and Patent C (a person) presented with lower eyelid puffiness.
Briefly, Patient A was administered a composition comprising Hylenex by injections of 100 U to each of five sites in the lower eyelid fat pads, Patient B was administered a composition comprising a collagenase by injections of 100 U to each of five sites in the lower eyelid fat pads, and Patient C was administered a composition comprising Hylenex and a collagenase by injections of 100 U to each of five sites in the lower eyelid fat pads. The injections were performed using a 0.5 ml syringe having a 32-gauge needle.
Each patient's lower eyelid puffiness was visually assessed 2 weeks, 1 month, 2 months, 4 months, 6 months, and 1 year after administration of the compositions.

[2] = tested on: patient with peri-orbital puffiness due to edema; assay: Treatment of peri-orbital puffiness due to peri-orbital edema using a hyaluronidase (Example 2); assay type: in vivo, human; settings: four injections, 10 units in each fat pad
Description: A patient with peri-orbital puffiness due to edema (edema not due to a hyaluronic acid filler) of the peri-orbital soft tissues or edema of the eyelid fat pads was treated with a composition comprising a hyaluronidase (e.g., Hylenex). Briefly, four injections were administered in the peri-orbital soft tissues and edematous orbital fat pads using a dosage of 10 units injected in each fat pad (in the case of edema of the fat pads). The injections were performed using a 0.5 ml syringe having a 32-gauge needle inserted parallel to the globe, angling away from the globe, to avoid injury to the globe.
An improvement in the extent of peri-orbital puffiness due to peri-orbital edema was observed within the first 15-60 minutes after the injections. […] Although there was recurrence of some of the edema, there was an improvement up to 3 months.

[3] = tested on: patients with inflammation due to stasis dermatitis; assay: Treatment of inflammation due to stasis dermatitis, severity grade (Example 6); assay type: in vivo, human; parameters: key: 4 (severe); 3 (moderate); 2 (mild); 1 (quiescent); 0 (normal); settings: one week after treatment, 500 units at five points on the ankle
Description: Patients with inflammation due to stasis dermatitis (Patient A, B, and C) on their lower legs were treated with Hylenex and the change in severity of their inflammation was measured after treatment.
Briefly, the severity of inflammation on a target area of each patient's ankle was first graded on the following scale: 4 (severe), 3 (moderate), 2 (mild), 1 (quiescent), or 0 (normal). Patient A scored a 4 prior to treatment, Patient B scored a 3 prior to treatment, and Patient C scored a 3 prior to treatment.
Next, 500 units of hylenex was injected at five different points into an area on each patient's ankle. The injections were performed using a 0.5 ml syringe having a 32-gauge needle. All patients were followed post injection, at one day and one week. Patient A's inflammation was classified as a 2 one week after treatment, Patient B's inflammation was classified as a 2 one week after treatment, and Patient C's inflammation was classified as a 2 one week after treatment.

[4] = tested on: patients with scleroderma on their arms; assay: Treatment of fibrosis (scleroderma on arms), severity grade (Example 8); assay type: in vivo, human; settings: five patients; average prior to treatment moderate; five injection points in a 10×10 cm area; followed one day to six months
Description: Five patients with scleroderma on their arms were treated with Hylenex and the change in severity of their fibrosis was measured after treatment. Briefly, the severity of scleroderma on a target area of on each patient was first graded using as either severe, moderate, mild, or none. Overall scores for patients' arms prior to treatment averaged as moderate.
Next, Hylenex was injected at five different points into a 10×10 cm area of scleroderma on the patient's arm. The injections were performed using a 0.5 ml syringe having a 32-gauge needle. All patients were followed post injection, at one day, one week, one, three, and six months.

Demyelinated neurons = assay: Treatment of demyelinated neurons in culture, microscopy (Example 9); assay type: cell-based; settings: 10 U/mL; after 14 days; 24-well plate
Description: Demyelinated neurons were grown to confluence in culture and then transferred to a 24-well cell culture plate (Sigma) in a volume of 2 mL. 10 U/mL of Hylenex was added to each well.

patients with jowls = assay: Treatment of jowls, severity grade (Example 10); assay type: in vivo, human; settings: Patients A, B and C, injected at seven points
Description: Patients with jowls (Patient A, B, and C) were treated with Hylenex and the change in severity of their jowls was measured after treatment. Briefly, the severity of jowls in Patients A-C was assessed on a scale of severe, moderate or mild. Patient A and B presented with severe jowls while Patient C presented with mild jowls.
Next, Hylenex was injected at seven different points into an area of skin on each patients with jowls. The injections were performed using a 0.5 ml syringe having a 32-gauge needle. All patients were followed post injection, at one day, one week, one, three, and six months.

[5] = tested on: patients with peri-orbital puffiness due to edema of the eyelid fat pads; assay: Treatment of peri-orbital puffiness due to peri-orbital edema using HYLENEX, PEFAS and Subjective Patient Score (Example 12); assay type: in vivo, human
Description: The Peri-orbital and Eyelid Fullness Assessment Scale (PEFAS or Sweis-Scale) defines the etiology of the upper and/or lower eyelid fullness to determine the best and safest course of treatment. It determines whether the fullness is secondary to pseudoherniation of the upper and/or lower eyelid fat pads, secondary to edema of the eyelid soft tissues, secondary to edema of the fat pads, or secondary to a combination of pseudoherniation of the fat pads with edema of the fat pads, and/or edema of the peri-orbital soft tissues. The PEFAS score is represented as the findings in the right upper eyelid/the findings in the lower eyelid and the findings in the left upper eyelid/the findings in the lower eyelid.
Four patients (Patients A-D) with peri-orbital puffiness due to edema (as identified in Example 1) of the eyelid fat pads were scored as a Grade 1E, 2E, 3E, or 3+E on the Peri-orbital Fullness Assessment Scale. A score was given to the upper and lower eyelids in the patient's left and right eye. Patient A's eyes were scored on the PEFAS scale as a L 0/3E (left eye; upper eyelid over lower eyelid) and a R 0/3E (right eye; upper eyelid over lower eyelid). Patient B was scored as a L 2E/2E and a R 2E/2E. Patient C was scored as a L 1/3E and a R 0/3E and Patient D was scored as a L 2E/3+E and a R 2E/3+E.
The patients were subsequently treated with HYLENEX. […] The injections were performed using a 0.5 ml syringe having a 31-gauge needle inserted parallel to the globe, angling away from the globe, to avoid injury to the globe. Specifically, three injections were made into the medial eyelid fat pad, two into the central eyelid fat pad, and three into the lateral eyelid fat pad at a depth of about 6 mm, 8 mm, and 6 mm, respectively. Additionally Patients B and C received 3 to 5 injections in the peri-orbital soft tissues (e.g., the malar region) at a depth of between about 5 to about 10 mm.
After treatment, Patient C was followed for 1 month, Patient D was followed for 2 months, and Patients A and B were followed for 3 months.
After treatment, the patient's eyes were scored on the PEFAS scale. Patient A's eyes were scored on the PEFAS scale as a L 0/0 (left eye; upper eyelid over lower eyelid) and a R 0/0E (right eye; upper eyelid over lower eyelid). Patient B was scored as a L 2E/1E and a R 2E/1. Patient C was scored as a L 1E/1E and a R 0/1 and Patient D was scored as a L 2E/0E and a R 2E/0.
Each patient was given an initial Subjective Patient Score of 10. The Subjective Patient Score is based on a scale of 1 to 10 with 10 being the subject's observed starting amount of peri-orbital puffiness and 0 being no puffiness. Each of the patients scored their puffiness between as a 3 or 4 at 2 weeks, 3 months, and 6 months after their initial treatment.

[6] = tested on: patient with peri-orbital puffiness due to edema; assay: Treatment of peri-orbital puffiness due to peri-orbital edema using 4-MU (Example 5); assay type: in vivo, human
Description: A patient with peri-orbital puffiness due to edema (edema not due to a hyaluronic acid filler) of the peri-orbital soft tissues or edema of the eyelid fat pads was treated with a composition comprising 25 mg/mL 4-methylumbelliferone (4-MU). Briefly, four injections were administered in the peri-orbital soft tissues and edematous orbital fat pads. The injections were performed using a 0.5 ml syringe having a 32-gauge needle inserted parallel to the globe, angling away from the globe, to avoid injury to the globe. An improvement in the extent of peri-orbital puffiness due to peri-orbital edema was observed within the first 15-60 minutes after the injections. […] Although there was recurrence of some of the edema, there was an improvement up to 3 months.

Molecule	lower eyelid puffiness, visual assessment [1]	adverse effects ([2]; one patient followed for 6 months)	duration of overall reduction in peri-orbital puffiness due to peri-orbital edema compared to pre-treatment ([2]; one patient followed for 6 months, recurrence of some of the edema)	time after the injections within which an improvement in the extent of peri-orbital puffiness due to peri-orbital edema was observed ([2]; one patient) [min]	severity of inflammation (scale 0-4) after treatment ([3]; Patient A, 4 prior to treatment)	severity of inflammation (scale 0-4) after treatment ([3]; Patient B, 3 prior to treatment)	severity of inflammation (scale 0-4) after treatment ([3]; Patient C, 3 prior to treatment)	overall severity score of scleroderma post-treatment (severe, moderate, mild, none) [4]	myelination of neurons by microscopy (Demyelinated neurons)	duration of effect on jowls (patients with jowls)	severity of jowls (severe, moderate or mild) after treatment (patients with jowls; one day after treatment, A and B severe, C mild before)	PEFAS score after treatment (upper eyelid over lower eyelid) ([5]; Patient A, left eye, L 0/3E before treatment)	PEFAS score after treatment (upper eyelid over lower eyelid) ([5]; Patient C, right eye, R 0/3E before treatment)	adverse effects ([5]; Patients A-D followed for up to 6 months, 30U per fat pad)	time over which a reduction in peri-orbital puffiness is still exhibited ([5]; Patients A-D, 30U per fat pad)	time after the injections within which an improvement in the extent of peri-orbital puffiness was exhibited ([5]; each of Patients A-D, 30U per peri-orbital fat pad exhibiting edema) [min]	peri-orbital (eye) puffiness compared to pre-treatment ([5]; each of Patients A-D, followed 1 month (C), 2 months (D), 3 months (A and B), 30U per fat pad)	adverse effects ([6]; one patient followed for 6 months, 25 mg/mL, four injections)	duration of overall reduction in peri-orbital puffiness due to peri-orbital edema compared to pre-treatment ([6]; one patient followed for 6 months, 25 mg/mL, four injections, recurrence of some of the edema)	time after the injections within which an improvement in the extent of peri-orbital puffiness due to peri-orbital edema was observed ([6]; one patient, four injections of a composition comprising 25 mg/mL) [min]
collagenase	did not exhibit any reduction in lower eyelid puffiness																			
Hylenex: recombinant preparation of human hyaluronidase; soluble fragment of human hyaluronidase (PH20), 447 amino acids, SEQ ID NO: 1	reduction in lower eyelid puffiness	without any adverse effects	up to 3 months	15 to 60	2	2	2	mild	remyelinated neurons	more than six months	mild jowls	0/0	0/1	without any adverse effects	up to 6 months	15 to 60	marked reduction			
Cc1cc(=O)oc2cc(O)ccc12 [4-methylumbelliferone]																		without any adverse effects	up to 3 months	15 to 60
